This passage reports Activity results from ChEMBL document CHEMBL5625277, “Systematical mutational analysis of teriparatide on anti-osteoporosis activity by alanine scanning” (Bioorg Med Chem Lett, 2024).

This data set is described as follows: Cytotoxicity in pre-osteoblasts (unknown origin) assessed as cell death upto 5 uM by CCK8 assay. Particulars: pre-osteoblast. The format is toxicity, cell-based. Background: Formazan colour is commonly taken as a measure of viable cells.

Turning to `CC[C@H](C)[C@H](NC(=O)[C@H](CCC(=O)O)NC(=O)[C@H](CO)NC(=O)[C@@H](NC(=O)[C@H](CO)NC(C)=O)C(C)C)C(=O)N[C@@H](CCC(N)=O)C(=O)N[C@@H](CC(C)C)C(=O)N[C@@H](CCSC)C(=O)N[C@@H](Cc1cnc[nH]1)C(=O)N[C@@H](CC(N)=O)C(=O)N[C@@H](CC(C)C)C(=O)NCC(=O)N[C@@H](CCCCN)C(=O)N[C@@H](Cc1cnc[nH]1)C(=O)N[C@@H](CC(C)C)C(=O)N[C@@H](CC(N)=O)C(=O)N[C@@H](CO)C(=O)N[C@@H](CCSC)C(=O)N[C@@H](C)C(=O)N[C@@H](CCCNC(=N)N)C(=O)N[C@H](C(=O)N[C@@H](CCC(=O)O)C(=O)N[C@@H](Cc1c[nH]c2ccccc12)C(=O)N[C@@H](CC(C)C)C(=O)N[C@@H](CCCNC(=N)N)C(=O)N[C@@H](CCCCN)C(=O)N[C@@H](CCCCN)C(=O)N[C@@H](CC(C)C)C(=O)N[C@@H](CCC(N)=O)C(=O)N[C@@H](CC(=O)O)C(=O)N[C@H](C(=O)N[C@@H](Cc1cnc[nH]1)C(=O)N[C@@H](CC(N)=O)C(=O)N[C@@H](Cc1ccccc1)C(N)=O)C(C)C)C(C)C`, the Activity result is on record as “Non-Toxic”.

As to `CC[C@H](C)[C@H](NC(=O)[C@H](CCC(=O)O)NC(=O)[C@H](CO)NC(=O)[C@@H](NC(=O)[C@H](CO)NC(C)=O)C(C)C)C(=O)N[C@@H](CCC(N)=O)C(=O)N[C@@H](C)C(=O)N[C@@H](CCSC)C(=O)N[C@@H](Cc1cnc[nH]1)C(=O)N[C@@H](CC(N)=O)C(=O)N[C@@H](CC(C)C)C(=O)NCC(=O)N[C@@H](CCCCN)C(=O)N[C@@H](Cc1cnc[nH]1)C(=O)N[C@@H](CC(C)C)C(=O)N[C@@H](CC(N)=O)C(=O)N[C@@H](CO)C(=O)N[C@@H](CCSC)C(=O)N[C@@H](CCC(=O)O)C(=O)N[C@@H](CCCNC(=N)N)C(=O)N[C@H](C(=O)N[C@@H](CCC(=O)O)C(=O)N[C@@H](Cc1c[nH]c2ccccc12)C(=O)N[C@@H](CC(C)C)C(=O)N[C@@H](CCCNC(=N)N)C(=O)N[C@@H](CCCCN)C(=O)N[C@@H](CCCCN)C(=O)N[C@@H](CC(C)C)C(=O)N[C@@H](CCC(N)=O)C(=O)N[C@@H](CC(=O)O)C(=O)N[C@H](C(=O)N[C@@H](Cc1cnc[nH]1)C(=O)N[C@@H](CC(N)=O)C(=O)N[C@@H](Cc1ccccc1)C(N)=O)C(C)C)C(C)C`, the Activity entry is “Non-Toxic”. The value for `CC[C@H](C)[C@H](NC(=O)[C@H](CCC(=O)O)NC(=O)[C@H](CO)NC(=O)[C@@H](NC(=O)[C@H](CO)NC(C)=O)C(C)C)C(=O)N[C@@H](CCC(N)=O)C(=O)N[C@@H](CC(C)C)C(=O)N[C@@H](CCSC)C(=O)N[C@@H](Cc1cnc[nH]1)C(=O)N[C@@H](CC(N)=O)C(=O)N[C@@H](CC(C)C)C(=O)NCC(=O)N[C@@H](CCCCN)C(=O)N[C@@H](Cc1cnc[nH]1)C(=O)N[C@@H](CC(C)C)C(=O)N[C@@H](CC(N)=O)C(=O)N[C@@H](CO)C(=O)N[C@@H](CCSC)C(=O)N[C@@H](CCC(=O)O)C(=O)N[C@@H](CCCNC(=N)N)C(=O)N[C@H](C(=O)N[C@@H](CCC(=O)O)C(=O)N[C@@H](Cc1c[nH]c2ccccc12)C(=O)N[C@@H](CC(C)C)C(=O)N[C@@H](CCCNC(=N)N)C(=O)N[C@@H](CCCCN)C(=O)N[C@@H](CCCCN)C(=O)N[C@@H](CC(C)C)C(=O)N[C@@H](CCC(N)=O)C(=O)N[C@@H](CC(=O)O)C(=O)N[C@H](C(=O)N[C@@H](Cc1cnc[nH]1)C(=O)N[C@@H](CC(N)=O)C(=O)N[C@@H](Cc1ccccc1)C(N)=O)C(C)C)C(C)C` was “Non-Toxic”; that for `CC[C@H](C)[C@H](NC(=O)[C@H](CCC(=O)O)NC(=O)[C@H](CO)NC(=O)[C@@H](NC(=O)[C@H](CO)NC(C)=O)C(C)C)C(=O)N[C@@H](CCC(N)=O)C(=O)N[C@@H](CC(C)C)C(=O)N[C@@H](CCSC)C(=O)N[C@@H](Cc1cnc[nH]1)C(=O)N[C@@H](CC(N)=O)C(=O)N[C@@H](CC(C)C)C(=O)NCC(=O)N[C@@H](CCCCN)C(=O)N[C@@H](Cc1cnc[nH]1)C(=O)N[C@@H](CC(C)C)C(=O)N[C@@H](CC(N)=O)C(=O)N[C@@H](CO)C(=O)N[C@@H](CCSC)C(=O)N[C@@H](CCC(=O)O)C(=O)N[C@@H](CCCNC(=N)N)C(=O)N[C@H](C(=O)N[C@@H](CCC(=O)O)C(=O)N[C@@H](Cc1c[nH]c2ccccc12)C(=O)N[C@@H](CC(C)C)C(=O)N[C@@H](CCCNC(=N)N)C(=O)N[C@@H](CCCCN)C(=O)N[C@@H](CCCCN)C(=O)N[C@@H](CC(C)C)C(=O)N[C@@H](CCC(N)=O)C(=O)N[C@@H](CC(=O)O)C(=O)N[C@@H](C)C(=O)N[C@@H](Cc1cnc[nH]1)C(=O)N[C@@H](CC(N)=O)C(=O)N[C@@H](Cc1ccccc1)C(N)=O)C(C)C` was “Non-Toxic”. As to `CC[C@H](C)[C@H](NC(=O)[C@H](CCC(=O)O)NC(=O)[C@H](C)NC(=O)[C@@H](NC(=O)[C@H](CO)NC(C)=O)C(C)C)C(=O)N[C@@H](CCC(N)=O)C(=O)N[C@@H](CC(C)C)C(=O)N[C@@H](CCSC)C(=O)N[C@@H](Cc1cnc[nH]1)C(=O)N[C@@H](CC(N)=O)C(=O)N[C@@H](CC(C)C)C(=O)NCC(=O)N[C@@H](CCCCN)C(=O)N[C@@H](Cc1cnc[nH]1)C(=O)N[C@@H](CC(C)C)C(=O)N[C@@H](CC(N)=O)C(=O)N[C@@H](CO)C(=O)N[C@@H](CCSC)C(=O)N[C@@H](CCC(=O)O)C(=O)N[C@@H](CCCNC(=N)N)C(=O)N[C@H](C(=O)N[C@@H](CCC(=O)O)C(=O)N[C@@H](Cc1c[nH]c2ccccc12)C(=O)N[C@@H](CC(C)C)C(=O)N[C@@H](CCCNC(=N)N)C(=O)N[C@@H](CCCCN)C(=O)N[C@@H](CCCCN)C(=O)N[C@@H](CC(C)C)C(=O)N[C@@H](CCC(N)=O)C(=O)N[C@@H](CC(=O)O)C(=O)N[C@H](C(=O)N[C@@H](Cc1cnc[nH]1)C(=O)N[C@@H](CC(N)=O)C(=O)N[C@@H](Cc1ccccc1)C(N)=O)C(C)C)C(C)C`, the Activity result is reported as “Non-Toxic”. On to `CC[C@H](C)[C@H](NC(=O)[C@H](CCC(=O)O)NC(=O)[C@H](CO)NC(=O)[C@@H](NC(=O)[C@H](CO)NC(C)=O)C(C)C)C(=O)N[C@@H](CCC(N)=O)C(=O)N[C@@H](CC(C)C)C(=O)N[C@@H](CCSC)C(=O)N[C@@H](Cc1cnc[nH]1)C(=O)N[C@@H](C)C(=O)N[C@@H](CC(C)C)C(=O)NCC(=O)N[C@@H](CCCCN)C(=O)N[C@@H](Cc1cnc[nH]1)C(=O)N[C@@H](CC(C)C)C(=O)N[C@@H](CC(N)=O)C(=O)N[C@@H](CO)C(=O)N[C@@H](CCSC)C(=O)N[C@@H](CCC(=O)O)C(=O)N[C@@H](CCCNC(=N)N)C(=O)N[C@H](C(=O)N[C@@H](CCC(=O)O)C(=O)N[C@@H](Cc1c[nH]c2ccccc12)C(=O)N[C@@H](CC(C)C)C(=O)N[C@@H](CCCNC(=N)N)C(=O)N[C@@H](CCCCN)C(=O)N[C@@H](CCCCN)C(=O)N[C@@H](CC(C)C)C(=O)N[C@@H](CCC(N)=O)C(=O)N[C@@H](CC(=O)O)C(=O)N[C@H](C(=O)N[C@@H](Cc1cnc[nH]1)C(=O)N[C@@H](CC(N)=O)C(=O)N[C@@H](Cc1ccccc1)C(N)=O)C(C)C)C(C)C`, for which the Activity result was “Non-Toxic”.
